Results as given in article PMC8955139, “Identifying HSV-1 Inhibitors from Natural Compounds via Virtual Screening Targeting Surface Glycoprotein D” (Pharmaceuticals, 2022).
Where two headings read alike, the source gives them in different places.

What was measured:
HSV-1 [1] = assay: Pre-treatment of cells with AC#7 before HSV-1 infection (Figure S2); format: cell-based
VERO cells [2] = assay: Toxicity of AC#7 on VERO cells at high concentration (800 µM, 2 h exposure, 46 h); conditions: viability 46 h later, WST-1
HSV-1 strain F [3] = assay: Time of addition cytopathic effect (CPE) inhibition assay; format: cell-based; conditions: for Antiherpetic activity in the in vitro assays: CPE inhibition, all stages, #28 at 10 µg/mL, #29 at 1 µg/mL
[4] = Cytotoxicity of ACs, WST-1, 24 h; conditions: African green monkey, VERO cells
VERO cells [5] = assay: Cytotoxicity of ACs, WST-1, 24 h; conditions: for Toxicity at the highest concentration tested compared with DMSO control: 100 µg/mL; for Highest Concentration with Cell Viability above 75%: 24 h, WST-1, tested 0.1-100 µg/mL; for Toxicity to the cells: 10 µg/mL
HSV-1 strain F [6] = assay: Plaque reduction dose-response assay in VERO cells; format: cell-based; conditions: for EC50: Human alphaherpesvirus 1, plaque reduction
in vitro = conditions: African green monkey
HSV-1 [7] = conditions: cited from earlier work
ACV-resistant HSV-1 = test system: ACV-resistant HSV-1; set-up: method as in PMID 9660995; conditions: in vivo; cited from earlier work
SARS-CoV 3CLpro = conditions: cited from earlier work

O=C(/C=C1\NCCc2cc3c(cc21)OCO3)c1cc2ccccc2o1 [AC#7, 1-(1-benzofuran-2-yl)-2-[(5Z)-2H,6H,7H,8H-[1,3]dioxolo [4,5-g]isoquinoline-5-ylidene]ethenone]
Antiviral activity when cells were preincubated with AC prior to HSV-1 infection (HSV-1 [1]; 10 µg/mL, 1 h before infection, MOI 5, VERO): No antiviral activity | Cell survival rate (HSV-1 [1]; 10 µg/mL, cells pre-treated 1 h, MOI=5, 48 h): 7.7% | inhibition at 10 µg/mL (HSV-1 [1]; Human alphaherpesvirus 1, cells pre-treated 1 h, MOI=5, 48 h): 0% | Toxicity to VERO cells (VERO cells [2]): Negligible toxicity | Antiviral activity at the viral inactivation stage (HSV-1 strain F [3]; 10 µg/mL, virus preincubated with AC 1 h, MOI 5, VERO, vs DMSO control): significantly higher activity than the DMSO control | viability at 24 h [4]: 124% | Toxicity at the highest concentration tested compared with DMSO control (VERO cells [5]): negligible toxicity | Highest Concentration with Cell Viability above 75% (VERO cells [5]): >100 µg/mL | Reduction of virus-induced plaques compared to DMSO control (HSV-1 strain F [6]; 25 µM, virus preincubated 1 h, VERO): significantly reduced the number of virus-induced plaques | Dose dependence of antiviral response (HSV-1 strain F [6]; 6.25-400 µM, pre-incubated with the virus, vs DMSO control): dose-dependent antiviral response | EC50 (HSV-1 strain F [6]; virus preincubated with AC 1 h, VERO): 61 µg/mL | EC50 (HSV-1 strain F [6]; virus preincubated with AC 1 h, VERO, asymmetric nonlinear regression R2 = 0.84): 183 µM

CN1CCN(C(=O)CCn2c3c(c4ccccc42)CCn2c-3nc3ccccc3c2=O)CC1 [AC#10, 13-[3-(4-methylpiperazin-1-yl)-3-oxopropyl]-8,13-dihydroindolo[2′,3′:3,4] pyrido [2,1-b]quinazolin-5(7H)-one]
viability at 24 h [4]: 73.2% | Toxicity to the cells (VERO cells [5]): exhibited toxicity | Highest Concentration with Cell Viability above 75% (VERO cells [5]): 1 µg/mL

C[C@H]1CCC[C@]2(C)C[C@H]3OC(=O)[C@H](CN4CCN(c5ccccc5)CC4)[C@H]3[C@@H]3O[C@@]132 [AC#16, (1Ar,2S,5Ar,6Ar,9S,9Ar,9Bs)-2,5a-dimethyl-9-((4-phenylpiperazin-1-yl)methyl)octahydro-2H-oxireno[2′,3′:4,4a]naphtho[2,3-b]furan-8(9Bh)-one]
viability at 24 h [4]: 102% | Toxicity to the cells (VERO cells [5]): exhibited toxicity | Highest Concentration with Cell Viability above 75% (VERO cells [5]): 1 µg/mL

Cc1ccc(Cl)cc1N1CCN(C[C@H]2C(=O)O[C@@H]3C[C@@]4(C)CCC[C@H](C)[C@@]45O[C@H]5[C@@H]32)CC1 [AC#17, (1Ar,2S,5Ar,6Ar,9S,9Ar,9Bs)-9-( (4-(5-chloro-2-methylphenyl)piperazin-1-yl)methyl)-2,5a-dimethyloctahydro-2H-oxireno[2′,3′:4,4a]naphtho[2,3-b]furan-8(9Bh)-one]
viability at 24 h [4]: 96.8% | Toxicity to the cells (VERO cells [5]): exhibited toxicity | Highest Concentration with Cell Viability above 75% (VERO cells [5]): 1 µg/mL

O=c1c(-c2c3cn[nH]c3nc3c2oc2cc(O)ccc23)cc2cccc3c2n1CC3 [AC#27]
Antiviral activity at the post-entry stage (HSV-1 strain F [3]; 10 µg/mL, AC added 1 h after infection, MOI 5, VERO): possess antiherpetic activity | viability at 24 h [4]: 106% | Toxicity at the highest concentration tested compared with DMSO control (VERO cells [5]): negligible toxicity | Highest Concentration with Cell Viability above 75% (VERO cells [5]): >100 µg/mL

O=C(CC1NC(=O)c2ccccc21)Nc1ccc2c(c1)C(=O)N1CCC[C@H]1C(=O)N2 (stereo partly drawn) [AC#28, N-((S)-5,11-dioxo-2,3,5,10,11,11a-hexahydro-1H-benzo[e]pyrrolo[1,2-a][1,4]diazepin-7-yl)-2-(3-oxoisoindolin-1-yl)acetamide]
Antiherpetic activity in the in vitro assays (HSV-1 strain F [3]): failed to show antiherpetic activity | viability at 24 h [4]: 105% | Toxicity at the highest concentration tested compared with DMSO control (VERO cells [5]): negligible toxicity | Highest Concentration with Cell Viability above 75% (VERO cells [5]): >100 µg/mL

O=C1NC(=O)c2c1c1c3ccccc3[nH]c1c1[nH]c3ccccc3c21 [AC#29, Arcyriaflavin A]
viability at 24 h (in vitro): 86.2% | Antiherpetic activity in the in vitro assays (HSV-1 strain F [3]): failed to show antiherpetic activity

Nc1nc2c(ncn2COCCO)c(=O)[nH]1 [ACV, 9-((2-Hydroxyethoxy)methyl) guanine, reference compound]
EC50 (HSV-1 [7]; in vitro): ~1 µM | EC50 (HSV-1 strain F [6]; added post-HSV infection, VERO, R2 > 0.99): 0.77 µM

CC[C@@H](NC(=O)[C@@H](CC(=O)[C@@H](CC(=O)[C@@H](NC(=O)[C@H](C(C)C)N(C)C(=O)[C@H](C)CC1CCCCC1)C(C)(C)C)CC(=O)C(C)(C)C)C1(C(=O)O)CCCC1)C(C)(C)C [BILD 1633 SE]
Antiviral activity in vitro relative to ACV (HSV-1 [7]; in vitro): higher antiviral activity than ACV | Therapeutic effect against ACV-resistant HSV-1 infections (ACV-resistant HSV-1): potent therapeutic effect

COc1cc(/C=C/C(=O)CC(=O)/C=C/c2ccc(O)c(OC)c2)ccc1O [curcumin]
EC50 (HSV-1 [7]; antiviral activity): 89.6 µM

Cc1cc(O)c2c(c1)C(=O)c1cc(O)cc(O)c1C2=O [emodin]
EC50 (HSV-1 [7]; antiviral activity): 21.5 to 195 µM

O=C(O[C@@H]1Cc2c(O)cc(O)cc2O[C@@H]1c1cc(O)c(O)c(O)c1)c1cc(O)c(O)c(O)c1 [epigallocatechin gallate]
EC50 (HSV-1 [7]; antiviral activity): 12.5 to 50 µM

CCOC(=O)/C=C/[C@H](C[C@@H]1CCNC1=O)NC(=O)[C@@H](CC(=O)[C@@H](NC(=O)c1cc(C)on1)C(C)C)Cc1ccc(F)cc1 [rupintrivir]
Inhibition of SARS-CoV 3CLpro (SARS-CoV 3CLpro): weak to undetectable inhibition
